Patent US20110097365A1, “S-TRIAZINE DERIVATIVES CONTAINING AT LEAST TWO PARTICULAR SILANE AMINOBENZOATE OR SILANE AMINOBENZAMIDE GROUPS; PHOTOPROTECTIVE COSMETIC COMPOSITIONS CONTAINING THESE DERIVATIVES; USES OF THE SAID S-TRIAZINE DERIVATIVES” (L'OREAL, priority 2007, published 2011)
Where “and” joins values, the source holds several entries; their conditions need not be identical. Equal values may be shown once.

Columns and labels:
Type in all cases: physicochemical
[1] = UV absorption of the derivatives in DMSO/ethanol; conditions: for E1% / εmax: at the λmax of the same block
[2] = Macroscopic observation of 1% oily dispersions in phenylethyl benzoate; conditions: 1% by weight in phenylethyl benzoate (X-Tend 226), after about one week
Protocol: (§1) Two micronizations of these compounds 1 and 2 are performed by milling in oily medium (oil: phenylethyl benzoate—X-Tend 226 from ISP) by means of a mill without addition of dispersant, using a Dispermat ball mill.
(§2) • Dispermat AE 06-C1 disperser-mill (Brant Industrie) • Dispersion: slurries containing 17% R056336A and 49% F17845 (difference in oil uptake) ˜3000 rpm ˜15 minutes • Milling under rapid conditions (30 minutes at 4500 rpm), not optimized (water-cooling circuit not operational) with 0.7-1.2 mm […] balls.
Two oily dispersions in phenylethyl benzoate (X-Tend 226) comprising 1% by weight, respectively, of compound 1A or 2A are then prepared.

[3] = Granulometric measurements by SLS (Mastersizer)
Protocol: as §1, §2
The granulometric results obtained by SLS using a Mastersizer granulometer reveal a very marked difference in particle size between compound 1 and compound 2, with particle sizes d(0.5), respectively, of 0.118 μm as opposed to 851 μm.

SMILES	λmax [1]	E1% [1]	εmax [1]	macroscopic stability of dispersion [2]	particle size d(0.5) ([3]; after milling in phenylethyl benzoate without dispersant, SLS Mastersizer) [μm]	dispersibility in the oil phenylethyl benzoate ([3]; overall conclusion, compared with compound 2)
CC12CCC(/C(=C\c3ccc(Nc4nc(Nc5ccc(C(=O)OC[Si](C)(C)C)cc5)nc(Nc5ccc(C(=O)OC[Si](C)(C)C)cc5)n4)cc3)C1=O)C2(C)C (stereo not shown) [Example 6, 2,4-bis(methyltrimethylsilyl 4′-aminobenzoate)-6-(4″-aminobenzylidenecamphor)-s-triazine]	313 nm and 345 nm	–	–	–	–	–
C[Si](C)(C)COC(=O)c1ccc(Nc2nc(Nc3ccc(C(=O)OC[Si](C)(C)C)c(O)c3)nc(Nc3ccc(C(=O)OC[Si](C)(C)C)c(O)c3)n2)cc1O [Example 3, 2,4,6-tris(methyltrimethyl-silyl 4′-aminosalicylate)-s-triazine]	326 nm and 300 nm	1456 and 938	107 610 and 74 400	–	–	–
C[Si](C)(C)CNC(=O)c1ccc(Nc2nc(Nc3ccc(C(=O)NC[Si](C)(C)C)cc3)nc(Nc3ccc(C(=O)NC[Si](C)(C)C)cc3)n2)cc1 [Example 7, 2,4,6-tris(methyltrimethyl-silyl 4′-aminobenzamide)-s-triazine]	303 nm	1123	83 330	–	–	–
CC(C)(C)CC(C)(C)c1cc(Cc2cc(C(C)(C)CC(C)(C)C)cc(-n3nc4ccccc4n3)c2O)c(O)c(-n2nc3ccccc3n2)c1 [Compound 2, methylenebis(benzo-triazolyl)tetramethylbutylphenol]	–	–	–	totally insoluble	–	–
COc1ccc(-c2nc(Nc3ccc(C(=O)OC[Si](C)(C)C)c(O)c3)nc(Nc3ccc(C(=O)OC[Si](C)(C)C)c(O)c3)n2)cc1 [Example 5, 2,4-bis(methyltrimethylsilyl 4′-aminosalicylate)-6-(para-methoxyphenyl)-s-triazine]	329 nm and 316 nm and 298 nm	927 and 1066 and 1030	61 370 and 70 570 and 68 190	–	–	–
C[Si](C)(C)COC(=O)c1ccc(Nc2nc(Nc3ccc(C(=O)OC[Si](C)(C)C)cc3)nc(Nc3ccc(C(=O)OC[Si](C)(C)C)cc3)n2)cc1 [Example 1, 2,4,6-tris(methyltrimethyl-silyl 4′-aminobenzoate)-s-triazine]	314 nm	1700	126 660	–	0.118	markedly superior dispersibility
COc1ccc(-c2nc(Nc3ccc(C(=O)OC[Si](C)(C)C)cc3)nc(Nc3ccc(C(=O)OC[Si](C)(C)C)cc3)n2)cc1 [Example 4, 2,4-bis(methyltrimethylsilyl 4′-aminobenzoate)-6-(para-methoxyphenyl)-s-triazine]	303 nm	1313	82 700	–	–	–
CCCCOC(=O)c1ccc(Nc2nc(Nc3ccc(C(=O)OC[Si](C)(C)C)cc3)nc(Nc3ccc(C(=O)OC[Si](C)(C)C)cc3)n2)cc1 [Example 2, 2,4-bis(methyltrimethylsilyl 4′-aminobenzoate)-6-(butyl 4″-aminobenzoate)-s-triazine]	313 nm	1660	104 560	–	–	–
